# Target: MAPK14 (human) (UniProt Q16539)
# Assay: In vitro Inhibition of TNF-alpha Production in PBMC Cells
# Settings: not given
# Chain of MAPK14 (human) (Q16539 whole entry, looked up): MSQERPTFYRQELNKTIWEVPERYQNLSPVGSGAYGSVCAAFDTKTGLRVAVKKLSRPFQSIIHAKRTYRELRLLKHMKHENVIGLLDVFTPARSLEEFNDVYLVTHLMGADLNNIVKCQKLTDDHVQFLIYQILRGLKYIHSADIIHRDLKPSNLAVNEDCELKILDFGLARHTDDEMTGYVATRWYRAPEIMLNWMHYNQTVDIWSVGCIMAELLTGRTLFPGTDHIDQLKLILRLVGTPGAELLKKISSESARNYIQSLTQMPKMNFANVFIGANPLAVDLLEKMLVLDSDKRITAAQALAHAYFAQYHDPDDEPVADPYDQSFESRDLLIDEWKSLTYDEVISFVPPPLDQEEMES
row,IC50 [µM],SMILES
1,0.004,CCCc1c(-c2ccnc(N[C@@H](C)c3ccccc3)n2)c(-c2ccc(F)cc2)cn1CCN1CCOCC1
2,0.017,COC(=O)c1c(-c2ccc(F)cc2)c(-c2ccncc2)c(N2CCCC2)n1C
3,0.036,Cn1c(C(=O)C2CC2)c(-c2ccc(F)cc2)c(-c2ccncc2)c1N1CCN(C(=O)C2CC2)CC1
4,0.04,Fc1ccc(-c2c[nH]c(CN3CCc4ccccc4C3)c2-c2ccncc2)cc1
5,0.051,COC(=O)c1c(-c2ccc(F)cc2)c(-c2ccncc2)c(N)n1C
6,0.154,CC(=O)N1CCN(c2c(-c3ccncc3)c(-c3ccc(F)cc3)c(C#N)n2C)CC1
7,0.08,CN1CCN(c2c(-c3ccncc3)c(-c3ccc(F)cc3)c(C#N)n2C)CC1
8,10,CCCNC(=O)c1c(-c2ccc(F)cc2)c(-c2ccncc2)c(N2CCNCC2)n1C
9,2.72,CCOC(=O)c1c(-c2cc(F)cc(F)c2)c(-c2ccncc2)c(Br)n1C
10,0.047,COC(=O)c1c(-c2ccc(F)cc2)c(-c2ccncc2)c(N2CCOCC2)n1C
11,0.192,Cn1c(N2CCCC2)c(-c2ccncc2)c(-c2ccc(F)cc2)c1C(C)(C)O
12,0.033,COC(=O)c1c(-c2ccc(F)cc2)c(-c2ccncc2)c(N2CCNCC2)n1C
13,0.118,COC(=O)c1c(-c2ccc(F)cc2)c(-c2ccncc2)c(Nc2ccc(N(C)C)cc2)n1C
14,0.095,COC(=O)c1c(-c2ccc(F)cc2)c(-c2ccncc2)c(N2CCN(C)CC2)n1C
15,0.043,CC(=O)c1c(-c2ccc(F)cc2)c(-c2ccncc2)c(N2CCN(C(C)=O)CC2)n1C
16,0.028,COC(=O)C(=O)c1c(-c2ccc(F)cc2)c(-c2ccncc2)c(N2CCNCC2)n1C
17,0.407,COC(=O)c1c(-c2ccc(F)cc2)c(-c2ccncc2)c(NCc2cccc(OC)c2)n1C
18,0.04,CC(=O)c1c(-c2ccc(F)cc2)c(-c2ccncc2)c(N2CCNCC2)n1C
19,0.852,CN(C)CCn1cc(-c2ccncc2)c(-c2ccc(F)cc2)c1CO
20,0.894,COC(=O)c1c(-c2ccncc2)c(-c2ccc(F)cc2)c(C#CCCO)n1C

# Test system: MAPK14 (BALB/cJ mice)
# Assay: In vivo Inhibition of LPS-induced TNF-alpha Production
# Settings: dose or concentration not given here
row,SMILES,inhibition [%]
1,CCCc1c(-c2ccnc(N[C@@H](C)c3ccccc3)n2)c(-c2ccc(F)cc2)cn1CCN1CCOCC1,-35
2,COC(=O)c1c(-c2ccc(F)cc2)c(-c2ccncc2)c(N2CCCC2)n1C,-38
3,Fc1ccc(-c2c[nH]c(CN3CCc4ccccc4C3)c2-c2ccncc2)cc1,63
4,COC(=O)c1c(-c2ccc(F)cc2)c(-c2ccncc2)c(N)n1C,53.9
5,CC(=O)N1CCN(c2c(-c3ccncc3)c(-c3ccc(F)cc3)c(C#N)n2C)CC1,81
6,CN1CCN(c2c(-c3ccncc3)c(-c3ccc(F)cc3)c(C#N)n2C)CC1,47
7,CCOC(=O)c1c(-c2cc(F)cc(F)c2)c(-c2ccncc2)c(Br)n1C,-36
8,COC(=O)c1c(-c2ccc(F)cc2)c(-c2ccncc2)c(N2CCOCC2)n1C,-41
9,Cn1c(N2CCCC2)c(-c2ccncc2)c(-c2ccc(F)cc2)c1C(C)(C)O,37.7
10,COC(=O)c1c(-c2ccc(F)cc2)c(-c2ccncc2)c(N2CCNCC2)n1C,73
11,COC(=O)c1c(-c2ccc(F)cc2)c(-c2ccncc2)c(Nc2ccc(N(C)C)cc2)n1C,15
12,COC(=O)c1c(-c2ccc(F)cc2)c(-c2ccncc2)c(N2CCN(C)CC2)n1C,89
13,COC(=O)C(=O)c1c(-c2ccc(F)cc2)c(-c2ccncc2)c(N2CCNCC2)n1C,52
14,COC(=O)c1c(-c2ccc(F)cc2)c(-c2ccncc2)c(NCc2cccc(OC)c2)n1C,63
15,CC(=O)c1c(-c2ccc(F)cc2)c(-c2ccncc2)c(N2CCNCC2)n1C,39
16,CN(C)CCn1cc(-c2ccncc2)c(-c2ccc(F)cc2)c1CO,20
17,COC(=O)c1c(-c2ccncc2)c(-c2ccc(F)cc2)c(C#CCCO)n1C,30

# Target: MAPK14 (UniProt Q16539)
# Sequence (Q16539 whole entry, looked up): as above
# Assay: In vitro Inhibition of MAPK14 Kinase Activity
# Settings: not given
row,IC50 [µM],SMILES
1,10,CCCc1c(-c2ccnc(N[C@@H](C)c3ccccc3)n2)c(-c2ccc(F)cc2)cn1CCN1CCOCC1
2,10,COC(=O)c1c(-c2ccc(F)cc2)c(-c2ccncc2)c(N2CCCC2)n1C
3,10,Cn1c(C(=O)C2CC2)c(-c2ccc(F)cc2)c(-c2ccncc2)c1N1CCN(C(=O)C2CC2)CC1
4,2,Fc1ccc(-c2c[nH]c(CN3CCc4ccccc4C3)c2-c2ccncc2)cc1
5,10,COC(=O)c1c(-c2ccc(F)cc2)c(-c2ccncc2)c(N)n1C
6,2,CC(=O)N1CCN(c2c(-c3ccncc3)c(-c3ccc(F)cc3)c(C#N)n2C)CC1
7,2,CN1CCN(c2c(-c3ccncc3)c(-c3ccc(F)cc3)c(C#N)n2C)CC1
8,10,CCCNC(=O)c1c(-c2ccc(F)cc2)c(-c2ccncc2)c(N2CCNCC2)n1C
9,> 10,CCOC(=O)c1c(-c2cc(F)cc(F)c2)c(-c2ccncc2)c(Br)n1C
10,10,COC(=O)c1c(-c2ccc(F)cc2)c(-c2ccncc2)c(N2CCOCC2)n1C
11,2,Cn1c(N2CCCC2)c(-c2ccncc2)c(-c2ccc(F)cc2)c1C(C)(C)O
12,10,COC(=O)c1c(-c2ccc(F)cc2)c(-c2ccncc2)c(N2CCNCC2)n1C
13,> 10,COC(=O)c1c(-c2ccc(F)cc2)c(-c2ccncc2)c(Nc2ccc(N(C)C)cc2)n1C
14,2,COC(=O)c1c(-c2ccc(F)cc2)c(-c2ccncc2)c(N2CCN(C)CC2)n1C
15,2,CC(=O)c1c(-c2ccc(F)cc2)c(-c2ccncc2)c(N2CCN(C(C)=O)CC2)n1C
16,10,COC(=O)C(=O)c1c(-c2ccc(F)cc2)c(-c2ccncc2)c(N2CCNCC2)n1C
17,10,CC(=O)c1c(-c2ccc(F)cc2)c(-c2ccncc2)c(N2CCNCC2)n1C
